Literature values, collected in patent US8648119B2, “Controlled release immunomodulator compositions and methods for the treatment of otic disorders” (Otonomy, Inc., priority 2008, dated 2014).

Columns and labels:
[1] = test system: patients; conditions: three phase-III clinical trials
[2] = test system: patients
[3] = test system: rat arthritis model; conditions: 30 mg/kg
[4] = biological target: T1, lymphotoxin (TNF-β (Homo sapiens, UniProt P01374))
T1 sequence (P01374 35-205): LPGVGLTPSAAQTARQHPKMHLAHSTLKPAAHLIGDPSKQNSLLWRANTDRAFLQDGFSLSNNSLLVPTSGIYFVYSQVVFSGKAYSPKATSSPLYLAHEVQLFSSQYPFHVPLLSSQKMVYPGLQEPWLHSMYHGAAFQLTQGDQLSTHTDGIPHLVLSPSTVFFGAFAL

[5] = test system: TNF expressing cells; conditions: in vitro, in the presence of complement
[6] = test system: Langerhans' cells or dermal connective tissue; conditions: in vivo
[7] = test system: TNF-α production in the LPS-induced human PBMC cells; conditions: read-out: IC50 for inhibiting TNF-α production
[8] = test system: Meniere's disease; conditions: infusion into the scala tympani
[9] = test system: LPS-challenged mice
[10] = biological target: TACE (Homo sapiens, UniProt P78536)
TACE, sequence (P78536 215-824): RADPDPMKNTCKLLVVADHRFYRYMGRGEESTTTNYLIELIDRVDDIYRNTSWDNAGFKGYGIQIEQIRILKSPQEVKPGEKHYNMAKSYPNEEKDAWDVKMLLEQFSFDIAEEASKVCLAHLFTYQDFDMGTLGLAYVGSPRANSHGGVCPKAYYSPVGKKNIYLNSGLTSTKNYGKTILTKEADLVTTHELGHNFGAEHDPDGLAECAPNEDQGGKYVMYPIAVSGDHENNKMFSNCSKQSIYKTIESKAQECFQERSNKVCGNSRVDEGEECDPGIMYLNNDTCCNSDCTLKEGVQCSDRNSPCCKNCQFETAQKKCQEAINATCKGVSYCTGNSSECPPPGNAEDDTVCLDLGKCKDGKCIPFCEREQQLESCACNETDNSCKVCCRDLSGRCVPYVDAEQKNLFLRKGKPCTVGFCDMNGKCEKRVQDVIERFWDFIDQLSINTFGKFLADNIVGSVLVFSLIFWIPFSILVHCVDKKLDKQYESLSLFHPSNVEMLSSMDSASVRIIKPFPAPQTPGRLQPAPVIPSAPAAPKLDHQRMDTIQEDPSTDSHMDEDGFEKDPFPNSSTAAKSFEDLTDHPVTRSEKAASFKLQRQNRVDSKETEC

[11] = test system: TNF-α production in the LPS-induced MonoMac-6 cells; conditions: read-out: IC50 for inhibiting TNF-α production
[12] = in vivo
[13] = test system: mouse collagen-induced arthritis model; conditions: 30 mg/kg dose

## onercept: a soluble TNF p55 receptor, TNF binding factor (Serono)
[1]
  adverse outcome reported in phase-III clinical trials: patients diagnosed with fatal sepsis

## etanercept
[2]; systemically treated
  patients experiencing injection site reactions (mild to moderate erythema and/or itching, pain and/or swelling): over one-third of patients

## COc1cccc2nc(-c3cccs3)nc(NN3C(=O)C=C(C)C3=O)c12 [SPC-839]
[3]
  paw edema: reduces paw edema

## Adalimumab
[4]
  binding or inactivation of lymphotoxin (TNF-β): does not bind or inactivate lymphotoxin
[5]
  lysis of TNF expressing cells: lyses TNF expressing cells in vitro
[2]; systemic administration
  patients developing injection site reactions (erythema and/or itching, hemorrhage, pain and/or swelling): 20%

## C=CC[C@@H]1/C=C(\C)C[C@H](C)C[C@H](OC)[C@H]2O[C@@](O)(C(=O)C(=O)N3CCCC[C@H]3C(=O)O[C@H](/C(C)=C/[C@@H]3CC[C@@H](O)[C@H](OC)C3)[C@H](C)[C@@H](O)CC1=O)[C@H](C)C[C@@H]2OC (relative stereo) [tacrolimus, [3S-[3R*[E(1S*,3S*,4S*)], 4S*,5R*,8S*,9E,12R*,14R*,15S*,16R*,18S*,19S*,26aR*]]-5,6,8,11,12,13,14,15,16,17,18,19,24,25,26,26a-hexadecahydro-5,19-dihydroxy-3-[2-(4-hydroxy-3-methoxycyclohexyl)-1-methylethenyl]-14,16-dimethoxy-4,10,12,18-tetramethyl-8-(2-propenyl)-15,19-epoxy-3H-pyrido[2,1-39c][1,4]oxaazacyclotricosine-1,7,20,21 (4H,23H)-tetrone monohydrate]
other
  bioavailability after topical application: less than 0.5%
  systemic exposure after topical application: very little, if any, systemic exposure
[6]
  atrophy of the skin: do not cause atrophy of the skin
  suppression of Langerhans' cells or dermal connective tissue: do not suppress Langerhans' cells or dermal connective tissue

## CC[C@H](C)[C@H](NC(=O)[C@H](CC(C)C)[C@H](C(C)C)N(O)C=O)C(=O)Nc1ccccn1 [GW3333]
[7]
  IC50: 970 nM

## Cc1ccccc1C(=O)Nc1ccc(C(=O)N2CCCC(N(C)C)c3ccccc32)cc1 (centres unmarked) [OPC-31260]
[8]
  Meniere's disease symptoms: marked reduction of Meniere's disease symptoms

## CC[C@@H]1/C=C(\C)C[C@H](C)C[C@H](OC)[C@H]2O[C@@](O)(C(=O)C(=O)N3CCCC[C@H]3C(=O)O[C@H](/C(C)=C/[C@@H]3CC[C@H](Cl)[C@H](OC)C3)[C@H](C)[C@@H](O)CC1=O)[C@H](C)C[C@@H]2OC [pimecrolimus, (1R,9S,12S,13R,14S,17R,18E,21S,23S,24R,25S,27R)-12-[(1E)-2-{(1R,3R,4S)-4-chloro-3-methoxycyclohexyl}-1-methylvinyl]-17-ethyl-1,14-dihydroxy-23,25-dimethoxy-13,19,21,27-tetramethyl-11,28-dioxa-4-aza-tricyclo[22.3.1.04,9]octacos-18-ene-2,3,10,16-tetraone]
other
  systemic exposure after topical application: very little, if any, systemic exposure
[6]
  atrophy of the skin: do not cause atrophy of the skin
  suppression of Langerhans' cells or dermal connective tissue: do not suppress Langerhans' cells or dermal connective tissue

## O=C(Nc1cc(Cl)cc2c1[nH]c1cnccc12)c1cccnc1 [PS-1145]
[9]
  production of TNF-α: reduces the production of TNF-α

## CC(C)C[C@@H](C(=O)N[C@@H](CCCN/C(N)=N/[N+](=O)[O-])C(=O)Nc1nccs1)[C@H](C(C)C)N(O)C=O [Nitroarginine analog A]
[10]
  IC50: 4 nM
[11]
  IC50: 34 nM
[12]
  oral activity: lacks oral activity

## Cc1ccc2nc(NCCN)c3ncc(C)n3c2c1 [BMS-345541]
[13]
  severity of disease: significantly reduced the severity of disease
